Columns and labels:
Settings in all cases: compound at 10 μM
Human Melanocortin (MC3) = target: T1, Human Melanocortin (MC3) (Homo sapiens, UniProt P41968); experiment: Radioligand binding, human melanocortin MC3 membranes, FlashPlate, [125I]-NDP-αMSH
T1 construct: purchased Perkin Elmer Biosignal
In short: (§1)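 Cloned human receptor membranes were coated onto FlashPlate wells and incubated with radioligand and compound (added from a 0.5 mM DMSO daughter plate) for 1 hour at room temperature in the dark. Scintillation counting gave percent inhibition, with DMSO defining total and reference ligand defining non-specific binding.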

Human κ-Opioid (KOP) = target: T2, Human κ-Opioid (KOP) (Homo sapiens, UniProt P41145); experiment: Radioligand binding, human κ-opioid (KOP) membranes, filtration, [3H]-Diprenorphine
T2 construct: purchased Perkin Elmer Biosignal
In short: (§2)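 Filtration binding on cloned human receptor membranes (1 Unit/well), [125I]-Substance P for NK1 and [3H]-Diprenorphine for KOP, 1 h at room temperature. Filters PEI-presoaked, washed with cold 50 mM Tris-HCl pH 7.4, counted by scintillation; percent inhibition calculated, reference ligand defining non-specific binding.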

Human μ-opioid (MOP) = target: T3, Human μ-opioid (MOP) (Homo sapiens, UniProt P35372); experiment: Radioligand binding, human μ-opioid (MOP) membranes, FlashPlate, [3H]-Naloxone
T3 construct: purchased Perkin Elmer Biosignal
In short: as §1

Human δ-opioid (DOP) = target: T4, Human δ-opioid (DOP) (Homo sapiens, UniProt P41143); experiment: Radioligand binding, human δ-opioid (DOP) membranes, FlashPlate, [3H]-Bremazocine
T4 construct: purchased Perkin Elmer Biosignal
In short: as §1

Human melanocortin (MC5) = target: T5, Human melanocortin (MC5) (Homo sapiens, UniProt P33032); experiment: Radioligand binding, human melanocortin MC5 membranes, FlashPlate, [125I]-NDP-αMSH
T5 construct: purchased Perkin Elmer Biosignal
In short: as §1

[1] = target: T6, Human melanin-concentrating hormone (MCH1) (Homo sapiens, UniProt Q99705); experiment: Radioligand binding, human melanin-concentrating hormone MCH1 membranes, FlashPlate, [125I]-S36057
T6 construct: purchased Perkin Elmer Biosignal
In short: as §1

Mouse urotensin (mUR2) = target: T7, Mouse urotensin (mUR2) (Mus musculus, UniProt Q8VIH9); experiment: Radioligand binding, mouse urotensin mUR2 membranes, FlashPlate, [125I]-Urotensin II
T7 construct: purchased Perkin Elmer Biosignal
T7 sequence (Q8VIH9 1-385): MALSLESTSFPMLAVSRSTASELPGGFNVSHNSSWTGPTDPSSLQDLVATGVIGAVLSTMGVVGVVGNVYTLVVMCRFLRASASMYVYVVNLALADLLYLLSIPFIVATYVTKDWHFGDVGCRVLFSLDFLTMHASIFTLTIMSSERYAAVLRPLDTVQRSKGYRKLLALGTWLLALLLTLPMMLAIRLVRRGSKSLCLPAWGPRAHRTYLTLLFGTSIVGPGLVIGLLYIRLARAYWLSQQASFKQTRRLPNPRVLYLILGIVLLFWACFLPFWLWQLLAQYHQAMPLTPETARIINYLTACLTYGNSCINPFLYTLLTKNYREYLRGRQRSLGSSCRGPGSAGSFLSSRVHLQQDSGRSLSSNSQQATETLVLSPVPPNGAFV
In short: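 Cloned mouse urotensin (mUR2) receptor membranes from Perkin Elmer Biosignal were immobilized in FlashPlate microplates using a proprietary coating. Each well got 19.5 μl buffer, then 0.5 μl of DMSO, reference ligand, or compound. Adding 5 μl of [125I]-Urotensin II, diluted to 5× final concentration in binding buffer, started binding. Plates were sealed with TopSeal-A and incubated 1 hour at room temperature in the dark. Wells were counted for 30 seconds each on a TopCount after a 60-second delay, and percentage inhibition was calculated.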

Human neurokinin (NK1) = target: T8, Human neurokinin (NK1) (Homo sapiens, UniProt P25103); experiment: Radioligand binding, human neurokinin NK1 membranes, filtration, [125I]-Substance P
T8 construct: purchased Perkin Elmer Biosignal
In short: as §2

Human opioid (ORL1) = target: T9, Human opioid (ORL1) (Homo sapiens, UniProt P41146); experiment: Radioligand binding, human opioid ORL1 membranes, FlashPlate, [125I]-Nociceptin
T9 construct: purchased Perkin Elmer Biosignal
In short: as §1

Human Melanocortin (MC4) = target: T10, Human Melanocortin (MC4) (Homo sapiens, UniProt P32245); experiment: Radioligand binding, human melanocortin MC4 membranes, FlashPlate, [125I]-NDP-αMSH
T10 construct: purchased Perkin Elmer Biosignal
In short: as §1

[2] = target: T11, Human neuropeptide Y (NPY-Y1) (Homo sapiens, UniProt P25929); experiment: Radioligand binding, human neuropeptide Y NPY-Y1 membranes, FlashPlate, [125I]-PYY
T11 construct: purchased Perkin Elmer Biosignal
T11 sequence (P25929 1-384): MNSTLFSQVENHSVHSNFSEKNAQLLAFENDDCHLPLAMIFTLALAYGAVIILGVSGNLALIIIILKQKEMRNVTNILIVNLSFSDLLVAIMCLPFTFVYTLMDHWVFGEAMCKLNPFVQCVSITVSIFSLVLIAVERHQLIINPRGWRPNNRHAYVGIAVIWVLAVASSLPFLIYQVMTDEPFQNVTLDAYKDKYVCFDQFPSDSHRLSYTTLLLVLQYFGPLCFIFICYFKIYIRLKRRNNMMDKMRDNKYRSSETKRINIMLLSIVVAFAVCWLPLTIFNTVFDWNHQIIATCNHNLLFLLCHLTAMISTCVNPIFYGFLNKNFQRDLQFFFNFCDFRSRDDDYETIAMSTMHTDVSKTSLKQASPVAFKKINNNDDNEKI
In short: as §1

T2 sequence (P41145 whole entry): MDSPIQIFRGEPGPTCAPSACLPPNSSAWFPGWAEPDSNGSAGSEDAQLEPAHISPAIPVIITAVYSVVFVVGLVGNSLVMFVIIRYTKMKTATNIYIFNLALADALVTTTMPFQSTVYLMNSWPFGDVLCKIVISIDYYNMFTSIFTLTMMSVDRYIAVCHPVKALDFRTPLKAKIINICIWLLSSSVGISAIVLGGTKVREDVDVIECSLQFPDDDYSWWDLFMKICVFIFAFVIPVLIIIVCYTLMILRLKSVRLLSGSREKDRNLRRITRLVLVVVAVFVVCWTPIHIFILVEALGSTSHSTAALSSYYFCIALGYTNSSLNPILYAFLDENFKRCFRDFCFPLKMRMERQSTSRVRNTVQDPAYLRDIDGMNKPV
T4 sequence (P41143 whole entry): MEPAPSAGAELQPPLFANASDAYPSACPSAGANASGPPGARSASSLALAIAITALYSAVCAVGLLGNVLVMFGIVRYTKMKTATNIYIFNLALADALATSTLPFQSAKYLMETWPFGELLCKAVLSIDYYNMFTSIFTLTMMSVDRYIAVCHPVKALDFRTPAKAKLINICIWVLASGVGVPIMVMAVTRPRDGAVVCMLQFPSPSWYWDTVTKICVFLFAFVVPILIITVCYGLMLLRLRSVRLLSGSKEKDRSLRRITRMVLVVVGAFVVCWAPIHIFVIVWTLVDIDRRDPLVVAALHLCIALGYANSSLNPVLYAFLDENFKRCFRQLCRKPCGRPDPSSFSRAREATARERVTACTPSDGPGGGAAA
T5 sequence (P33032 whole entry): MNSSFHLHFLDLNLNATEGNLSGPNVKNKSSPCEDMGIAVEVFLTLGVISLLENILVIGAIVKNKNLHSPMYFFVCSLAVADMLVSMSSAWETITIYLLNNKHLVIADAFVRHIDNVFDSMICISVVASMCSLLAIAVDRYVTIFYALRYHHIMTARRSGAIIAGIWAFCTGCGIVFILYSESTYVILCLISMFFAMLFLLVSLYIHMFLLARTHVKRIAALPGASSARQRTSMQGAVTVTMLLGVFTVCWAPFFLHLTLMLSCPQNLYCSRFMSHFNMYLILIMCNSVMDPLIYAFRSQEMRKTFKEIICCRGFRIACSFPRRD
T3 sequence (P35372 whole entry): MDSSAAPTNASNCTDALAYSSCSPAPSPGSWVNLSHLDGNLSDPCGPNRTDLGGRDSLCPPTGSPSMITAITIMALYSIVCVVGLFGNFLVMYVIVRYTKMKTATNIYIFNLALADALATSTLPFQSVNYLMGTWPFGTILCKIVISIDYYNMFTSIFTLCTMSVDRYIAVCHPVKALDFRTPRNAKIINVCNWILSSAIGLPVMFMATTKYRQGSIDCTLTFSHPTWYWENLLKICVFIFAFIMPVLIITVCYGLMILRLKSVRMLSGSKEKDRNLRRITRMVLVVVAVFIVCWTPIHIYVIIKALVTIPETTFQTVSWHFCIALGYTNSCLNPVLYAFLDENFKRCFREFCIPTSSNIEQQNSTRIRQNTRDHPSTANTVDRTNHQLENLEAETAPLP
T8 sequence (P25103 whole entry): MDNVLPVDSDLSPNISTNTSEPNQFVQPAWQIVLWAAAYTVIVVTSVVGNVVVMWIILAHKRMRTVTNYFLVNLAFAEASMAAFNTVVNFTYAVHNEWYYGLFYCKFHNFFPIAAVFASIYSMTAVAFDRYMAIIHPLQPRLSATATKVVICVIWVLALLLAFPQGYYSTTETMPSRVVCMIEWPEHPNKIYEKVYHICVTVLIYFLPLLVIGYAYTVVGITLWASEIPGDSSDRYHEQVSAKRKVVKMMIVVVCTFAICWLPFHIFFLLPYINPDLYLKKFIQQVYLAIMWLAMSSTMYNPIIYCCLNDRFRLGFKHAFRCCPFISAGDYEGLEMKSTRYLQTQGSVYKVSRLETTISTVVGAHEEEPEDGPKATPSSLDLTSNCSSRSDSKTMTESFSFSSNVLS
T6 sequence (Q99705 whole entry): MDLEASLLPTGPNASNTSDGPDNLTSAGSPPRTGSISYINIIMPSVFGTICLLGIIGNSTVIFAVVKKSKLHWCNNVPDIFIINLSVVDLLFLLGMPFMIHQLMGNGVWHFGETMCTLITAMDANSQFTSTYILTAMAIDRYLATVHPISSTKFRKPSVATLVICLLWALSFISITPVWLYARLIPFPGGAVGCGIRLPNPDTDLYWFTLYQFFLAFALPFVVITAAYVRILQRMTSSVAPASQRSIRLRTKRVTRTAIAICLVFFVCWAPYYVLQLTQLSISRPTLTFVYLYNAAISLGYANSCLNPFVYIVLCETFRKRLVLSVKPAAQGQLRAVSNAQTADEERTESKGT
T10 sequence (P32245 whole entry): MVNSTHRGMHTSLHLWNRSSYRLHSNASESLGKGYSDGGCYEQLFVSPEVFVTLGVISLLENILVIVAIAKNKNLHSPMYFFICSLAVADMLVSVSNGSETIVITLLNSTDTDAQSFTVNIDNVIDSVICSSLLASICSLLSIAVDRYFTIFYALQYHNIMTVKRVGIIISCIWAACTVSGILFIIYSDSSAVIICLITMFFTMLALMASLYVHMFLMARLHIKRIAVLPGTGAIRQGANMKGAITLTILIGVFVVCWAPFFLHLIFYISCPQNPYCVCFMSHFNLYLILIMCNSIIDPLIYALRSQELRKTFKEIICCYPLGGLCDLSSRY
T1 sequence (P41968 whole entry): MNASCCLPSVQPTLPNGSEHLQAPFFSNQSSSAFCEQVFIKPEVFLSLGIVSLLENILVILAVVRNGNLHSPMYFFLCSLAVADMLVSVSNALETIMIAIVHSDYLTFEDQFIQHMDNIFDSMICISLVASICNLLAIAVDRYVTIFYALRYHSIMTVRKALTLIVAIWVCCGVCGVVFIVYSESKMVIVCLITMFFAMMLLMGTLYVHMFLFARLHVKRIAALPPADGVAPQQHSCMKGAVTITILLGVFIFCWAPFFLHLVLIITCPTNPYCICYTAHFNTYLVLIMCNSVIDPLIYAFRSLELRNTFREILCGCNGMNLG
T9 sequence (P41146 whole entry): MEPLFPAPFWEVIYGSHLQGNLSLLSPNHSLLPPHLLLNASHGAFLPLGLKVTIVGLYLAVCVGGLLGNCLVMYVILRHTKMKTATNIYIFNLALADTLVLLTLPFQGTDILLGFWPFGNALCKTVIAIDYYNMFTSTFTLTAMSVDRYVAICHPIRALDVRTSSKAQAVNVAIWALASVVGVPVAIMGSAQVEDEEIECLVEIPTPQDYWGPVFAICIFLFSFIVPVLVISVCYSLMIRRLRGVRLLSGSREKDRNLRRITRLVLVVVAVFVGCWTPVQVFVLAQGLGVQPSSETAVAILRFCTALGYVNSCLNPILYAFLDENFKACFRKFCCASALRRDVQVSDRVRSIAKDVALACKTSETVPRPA

## COC[C@H]1OC(OCc2ccc(Cl)cc2)[C@H](NC(=O)CCNC(=N)N)[C@@H](OCc2cccc(O)c2)[C@@H]1O (stereo partly drawn) [compound 138]
Human Melanocortin (MC3); [125I]-NDP-αMSH
  A3 radioligand binding, percentage inhibition: − (“−” indicates less than 50% inhibition at 10 μM)
Human κ-Opioid (KOP); [3H]-Diprenorphine
  A2 radioligand binding, percentage inhibition: − (“−” indicates less than 50% inhibition at 10 μM)
Human μ-opioid (MOP); [3H]-Naloxone
  A7 radioligand binding, percentage inhibition: + (“+” indicates greater than 50% inhibition at 10 μM)
Human δ-opioid (DOP); [3H]-Bremazocine
  A1 radioligand binding, percentage inhibition: + (“+” indicates greater than 50% inhibition at 10 μM)
Human melanocortin (MC5); [125I]-NDP-αMSH
  A5 radioligand binding, percentage inhibition: − (“−” indicates less than 50% inhibition at 10 μM)
[1]; [125I]-S36057
  A6 radioligand binding, percentage inhibition: − (“−” indicates less than 50% inhibition at 10 μM)
Mouse urotensin (mUR2); [125I]-Urotensin II
  A11 radioligand binding, percentage inhibition: − (“−” indicates less than 50% inhibition at 10 μM)
Human neurokinin (NK1); [125I]-Substance P
  A8 radioligand binding, percentage inhibition: − (“−” indicates less than 50% inhibition at 10 μM)
Human opioid (ORL1); [125I]-Nociceptin
  A10 radioligand binding, percentage inhibition: − (“−” indicates less than 50% inhibition at 10 μM)
Human Melanocortin (MC4); [125I]-NDP-αMSH
  A4 radioligand binding, percentage inhibition: − (“−” indicates less than 50% inhibition at 10 μM)
[2]; [125I]-PYY
  A9 radioligand binding, percentage inhibition: − (“−” indicates less than 50% inhibition at 10 μM)

## CO[C@H]1[C@H](O)[C@@H](COCc2ccc(Cl)cc2)OC(OCc2ccc(-c3ccccc3)cc2)[C@@H]1NC(=O)CCCN (stereo partly drawn) [compound 64]
Human Melanocortin (MC3); human melanocortin MC3 membranes
  A3 radioligand binding inhibition: + (“+” indicates greater than 50% inhibition at 10 μM)
Human κ-Opioid (KOP); human κ-opioid (KOP) membranes
  A2 radioligand binding inhibition: − (“−” indicates less than 50% inhibition at 10 μM)
Human μ-opioid (MOP); human μ-opioid (MOP) membranes
  A7 radioligand binding inhibition: − (“−” indicates less than 50% inhibition at 10 μM)
Human δ-opioid (DOP); human δ-opioid (DOP) membranes
  A1 radioligand binding inhibition: − (“−” indicates less than 50% inhibition at 10 μM)
Human melanocortin (MC5); human melanocortin MC5 membranes
  A5 radioligand binding inhibition: + (“+” indicates greater than 50% inhibition at 10 μM)
[1]; human MCH1 membranes
  A6 radioligand binding inhibition: − (“−” indicates less than 50% inhibition at 10 μM)
Mouse urotensin (mUR2); mouse urotensin mUR2 membranes
  A11 radioligand binding inhibition: − (“−” indicates less than 50% inhibition at 10 μM)
Human neurokinin (NK1); human neurokinin NK1 membranes
  A8 radioligand binding inhibition: + (“+” indicates greater than 50% inhibition at 10 μM)
Human opioid (ORL1); human ORL1 membranes
  A10 radioligand binding inhibition: − (“−” indicates less than 50% inhibition at 10 μM)
Human Melanocortin (MC4); human melanocortin MC4 membranes
  A4 radioligand binding inhibition: − (“−” indicates less than 50% inhibition at 10 μM)
[2]; human NPY-Y1 membranes
  A9 radioligand binding inhibition: − (“−” indicates less than 50% inhibition at 10 μM)

## COCC1OC(OCc2ccc3ccccc3c2)C(NC(=O)CCNC(=N)N)C(OCc2ccccc2)C1O (stereo not drawn) [compound 232]
Human Melanocortin (MC3); [125I]-NDP-αMSH, FlashPlate
  A3: inhibition of radioligand binding: − (“−” indicates less than 50% inhibition at 10 μM)
Human κ-Opioid (KOP); [3H]-Diprenorphine, filtration
  A2: inhibition of radioligand binding: − (“−” indicates less than 50% inhibition at 10 μM)
Human μ-opioid (MOP); [3H]-Naloxone, FlashPlate
  A7: inhibition of radioligand binding: − (“−” indicates less than 50% inhibition at 10 μM)
Human δ-opioid (DOP); [3H]-Bremazocine, FlashPlate
  A1: inhibition of radioligand binding: − (“−” indicates less than 50% inhibition at 10 μM)
Human melanocortin (MC5); [125I]-NDP-αMSH, FlashPlate
  A5: inhibition of radioligand binding: − (“−” indicates less than 50% inhibition at 10 μM)
[1]; [125I]-S36057, FlashPlate
  A6: inhibition of radioligand binding: − (“−” indicates less than 50% inhibition at 10 μM)
Mouse urotensin (mUR2); [125I]-Urotensin II, FlashPlate
  A11: inhibition of radioligand binding: − (“−” indicates less than 50% inhibition at 10 μM)
Human neurokinin (NK1); [125I]-Substance P, filtration
  A8: inhibition of radioligand binding: + (“+” indicates greater than 50% inhibition at 10 μM)
Human opioid (ORL1); [125I]-Nociceptin, FlashPlate
  A10: inhibition of radioligand binding: − (“−” indicates less than 50% inhibition at 10 μM)
Human Melanocortin (MC4); [125I]-NDP-αMSH, FlashPlate
  A4: inhibition of radioligand binding: − (“−” indicates less than 50% inhibition at 10 μM)
[2]; [125I]-PYY, FlashPlate
  A9: inhibition of radioligand binding: − (“−” indicates less than 50% inhibition at 10 μM)

From patent US20080009418A1, “Selective Inhibitors” (Alchemia LTD., priority 2004, published 2008)
